The values that follow are results of earlier work, collected in patent US9808446B2, “Method for decreasing symptoms of alcohol consumption” (Alcobra Ltd., priority 2007, dated 2017).

For data set [1], the system named is frontoparietal cortex. Particulars: guinea pigs, brain.
Test in data set [2]: not given
The source holds these as a separate data set.

The conditions of data set [3]: long term data.

Take `Cc1ncc(CO)c(CO)c1O.O=C1CC[C@@H](C(=O)O)N1` [Metadoxine, pyridoxol L,2-pyrrolidon-5 carboxylate]: the “level of GABA and acetylcholine in the frontoparietal cortex” value in data set [1] was “increased”. The “mean half life in human serum” value (Lu Yuan et al.) is listed as “about 0.8 hour”. Under “oral”, the bioavailability is reported as 60-80% and the oral absorption entry was “fast”. Besides, under “oral and intravenous, without appreciable differences”, the “half life in human serum” value was 40 to 60 min. Moreover, in data set [2] (animal studies), the “glutathione depletion in hepatic tissues” value is “prevented” and the “oxidative stress in hepatic tissues” value was “reduced”. The “increased production of fatty acid esters in the liver” value in data set [2] (during chronic alcohol intake) is listed as “inhibited”. In data set [3], the “safety for use by humans” value was “safe”.
